Assay [1] addresses T1, Amyloid-β 1–42 (Aβ1–42) fibrils (Homo sapiens, UniProt P05067).
T1 construct: gene APP
In words: ThT fluorescence turn-on during Aβ[…] self-assembly (reference dye). Format: binding.

In assay [2] the target is T2, Amyloid-β 1–42 (Aβ1–42) oligomers (Homo sapiens, UniProt P05067).
T2 construct: gene APP; full-length Aβ1–42 synthetic peptide, oligomers
In words: fluorescence saturation titration; hexamer fragment mapping assay. Format: binding.

The values that follow come from article PMC10837422, “Early onset diagnosis in Alzheimer’s disease patients via amyloid-β oligomers-sensing probe in cerebrospinal fluid” (Nature Communications, 2024).

The structures appear in SMILES notation.

For orientation: Kd means the free concentration of one partner at which half of the binding sites on the other are occupied at equilibrium, for simple one-to-one binding.

T2 sequence (P05067 672-713): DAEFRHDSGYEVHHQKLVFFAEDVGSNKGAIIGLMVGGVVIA
T1 sequence (P05067 672-713): as above

As to `Cc1ccc2c(c1)sc(-c1ccc(N(C)C)cc1)[n+]2C` [ThT, thioflavin T], the “ThT fluorescence turn-on during Aβ1-42 self-assembly (reference dye)” value in assay [1] is listed as “matured Aβ aggregates formation, since ThT specifically detects cross-β-sheet via hydrophobic binding”.

Regarding `CC(C)CC1=[O+][B-](F)(F)OC(/C=C/c2ccc3nc(N(C)C)ccc3c2)=C1` [Q-OB], in assay [2], the affinity, expressed as Kd, was 303 ± 94.7 nM.
